Assay results: patent US10632125B2, “MTH1 inhibitors for treatment of inflammatory and autoimmune conditions” (THOMAS HELLEDAYS STIFTELSE FÖR MEDICINSK FORSKNING, priority 2014, dated 2020)
pIC50: −log10 of the molar value.

Molecular target: MTH1 (Homo sapiens, UniProt P36639)
Experiment: MTH1 enzymatic assay (malachite green, coupled to pyrophosphatase)
Format: biochemical
Details: dGTP 100 μM, MTH1 6 nM; 96- or 384-well format; read-out: IC50

pIC50, > 6.70:
Cc1cccc(-c2cc(NCCNc3ccc(Cl)cn3)nc(N)n2)c1C [Example 450, 4-N-{2-[(5-chloropyridin-2-yl)amino]ethyl}-6-(2,3-dimethylphenyl)pyrimidine-2,4-diamine]
Cc1cccc(-c2cc(NCCNc3ccc(S(N)(=O)=O)cc3)nc(N)n2)c1C [Example 452, 4-[(2-{[2-amino-6-(2,3-dimethylphenyl)pyrimidin-4-yl]amino}ethyl)amino]benzene-1-sulfonamide]
Cc1c(Cl)cccc1-c1cc(NCCc2ccc(Cl)cc2)nc(N)n1 [Example 461, 6-(3-chloro-2-methylphenyl)-4-N-[2-(4-chlorophenyl)ethyl]pyrimidine-2,4-diamine]
CNc1cc(-c2ccsc2)nc(N)n1 [Example 463, 4-N-methyl-6-(thiophen-3-yl)pyrimidine-2,4-diamine]
CNc1cc(-c2cc(C)cs2)nc(N)n1 [Example 464, 4-N-methyl-6-(4-methylthiophen-2-yl)pyrimidine-2,4-diamine]
CNc1cc(-c2ccnn2C)nc(N)n1 [Example 465, 4-N-methyl-6-(1-methyl-1H-pyrazol-5-yl)pyrimidine-2,4-diamine]
Nc1nc(NCCNc2ccc(Br)cn2)cc(-c2cccc(Cl)c2Cl)n1 [Example 466, 4-N-{2-[(5-bromopyridin-2-yl)amino]ethyl}-6-(2,3-dichlorophenyl)pyrimidine-2,4-diamine]
CNc1cc(-c2cc[nH]c2)nc(N)n1 [Example 468, 4-N-methyl-6-(1H-pyrrol-3-yl)pyrimidine-2,4-diamine]
COCC(=O)NCCCCNc1cc(-c2cccc(Cl)c2Cl)nc(N)n1 [Example 469, N-(4-{[2-amino-6-(2,3-dichlorophenyl)pyrimidin-4-yl]amino}butyl)-2-methoxyacetamide]
Nc1nc(NCCCCNC(=O)C(F)(F)F)cc(-c2cccc(Cl)c2Cl)n1 [Example 470, N-(4-{[2-amino-6-(2,3-dichlorophenyl)pyrimidin-4-yl]amino}butyl)-2,2,2-trifluoroacetamide]
CS(=O)(=O)c1ccc(C(=O)NCCCCNc2cc(-c3cccc(Cl)c3Cl)nc(N)n2)cc1 [Example 471, N-(4-{[2-amino-6-(2,3-dichlorophenyl)pyrimidin-4-yl]amino}butyl)-4-methanesulfonylbenzamide]
Nc1nc(NCCCCNC(=O)c2ccno2)cc(-c2cccc(Cl)c2Cl)n1 [Example 472, N-(4-{[2-amino-6-(2,3-dichlorophenyl)pyrimidin-4-yl]amino}butyl)-1,2-oxazole-5-carboxamide]
Nc1nc(NCCCCNC(=O)c2ccc(Cl)c(Cl)c2)cc(-c2cccc(Cl)c2Cl)n1 [Example 473, N-(4-{[2-amino-6-(2,3-dichlorophenyl)pyrimidin-4-yl]amino}butyl)-3,4-dichlorobenzamide]
CC(C)(C)C(=O)NCCCCNc1cc(-c2cccc(Cl)c2Cl)nc(N)n1 [Example 474, N-(4-{[2-amino-6-(2,3-dichlorophenyl)pyrimidin-4-yl]amino}butyl)-2,2-dimethylpropanamide]
CS(=O)(=O)c1ccc(S(=O)(=O)NCCCCNc2cc(-c3cccc(Cl)c3Cl)nc(N)n2)cc1 [Example 475, N-(4-{[2-amino-6-(2,3-dichlorophenyl)pyrimidin-4-yl]amino}butyl)-4-methanesulfonylbenzene-1-sulfonamide]
CNc1cc(-c2ccoc2C)nc(N)n1 [Example 478, 4-N-methyl-6-(2-methylfuran-3-yl)pyrimidine-2,4-diamine]
CNc1cc(-c2ccc(CN3CCCC3)s2)nc(N)n1 [Example 479, 4-N-methyl-6-[5-(pyrrolidin-1-ylmethyl)thiophen-2-yl]pyrimidine-2,4-diamine]
Nc1nc(NCCc2ccc(Cl)cc2)cc(-c2ccccc2CO)n1 [Example 481, [2-(2-amino-6-{[2-(4-chlorophenyl)ethyl]amino}pyrimidin-4-yl)phenyl]methanol]
Cc1c(Cl)cccc1-c1cc(NC2CC2)nc(N)n1 [Example 482, 6-(3-chloro-2-methylphenyl)-4-N-cyclopropylpyrimidine-2,4-diamine]
Cc1c(Cl)cccc1-c1cc(NCCF)nc(N)n1 [Example 483, 6-(3-chloro-2-methylphenyl)-4-N-(2-fluoroethyl)pyrimidine-2,4-diamine]
Cc1cccc(-c2cc(NCCF)nc(N)n2)c1C [Example 484, 6-(2,3-dimethylphenyl)-4-N-(2-fluoroethyl)pyrimidine-2,4-diamine]
CNc1cc(-c2cnn(CCC(N)=O)c2)nc(N)n1 [Example 487, 3-{4-[2-amino-6-(methylamino)pyrimidin-4-yl]-1H-pyrazol-1-yl}propanamide]
COc1cc(C)c(NCCNc2cc(-c3cccc(C)c3C)nc(N)n2)cn1 [Example 490, 6-(2,3-dimethylphenyl)-4-N-{2-[(6-methoxy-4-methylpyridin-3-yl)amino]ethyl}pyrimidine-2,4-diamine]
NC(=O)COc1cccc(-c2cc(NCCc3ccc(Cl)cc3)nc(N)n2)c1 [Example 498, 2-[3-(2-amino-6-{[2-(4-chlorophenyl)ethyl]amino}pyrimidin-4-yl)phenoxy]acetamide]
Cc1cccc(-c2cc(NCCNc3cnccn3)nc(N)n2)c1C [Example 500, 6-(2,3-dimethylphenyl)-4-N-{2-[(pyrazin-2-yl)amino]ethyl}pyrimidine-2,4-diamine]
Cc1cccc(-c2cc(NCCNc3cc(Cl)ncn3)nc(N)n2)c1C [Example 501, 4-N-{2-[(6-chloropyrimidin-4-yl)amino]ethyl}-6-(2,3-dimethylphenyl)pyrimidine-2,4-diamine]
CNc1cc(-c2ccccc2CO)nc(N)n1 [Example 508, {2-[2-amino-6-(methylamino)pyrimidin-4-yl]phenyl}methanol]
Nc1nc(NCCc2ccc(S(N)(=O)=O)cc2)cc(-c2ccccc2CO)n1 [Example 509, 4-[2-({2-amino-6-[2-(hydroxymethyl)phenyl]pyrimidin-4-yl}amino)ethyl]benzene-1-sulfonamide]
Cc1cccc(-c2cc(NCCNc3cc(C(N)=O)ccn3)nc(N)n2)c1C [Example 514, 2-[(2-{[2-amino-6-(2,3-dimethylphenyl)pyrimidin-4-yl]amino}ethyl)amino]pyridine-4-carboxamide]
Cc1c(NC(=O)c2ccc(Cl)cc2O)cccc1-c1cc(NCCc2ccc(S(C)(=O)=O)cc2)nc(N)n1 [Example 516, N-[3-(2-amino-6-{[2-(4-methanesulfonylphenyl)ethyl]amino}pyrimidin-4-yl)-2-methylphenyl]-4-chloro-2-hydroxybenzamide]
Cc1cccc(-c2cc(NCCc3c[nH]c4ccc(O)cc34)nc(N)n2)c1C [Example 517, 3-(2-{[2-amino-6-(2,3-dimethylphenyl)pyrimidin-4-yl]amino}ethyl)-1H-indol-5-ol]
Cc1cccc(-c2cc(NCCc3c[nH]c4ccc(OCc5ccccc5)cc34)nc(N)n2)c1C [Example 518, 4-N-{2-[5-(benzyloxy)-1H-indol-3-yl]ethyl}-6-(2,3-dimethylphenyl)pyrimidine-2,4-diamine]
Cc1cccc(-c2cc(NCCc3c[nH]c4ccc(Br)cc34)nc(N)n2)c1C [Example 519, 4-N-[2-(5-bromo-1H-indol-3-yl)ethyl]-6-(2,3-dimethylphenyl)pyrimidine-2,4-diamine]
COc1ccc2[nH]cc(CCNc3cc(-c4cccc(C)c4C)nc(N)n3)c2c1 [Example 520, 6-(2,3-dimethylphenyl)-4-N-[2-(5-methoxy-1H-indol-3-yl)ethyl]pyrimidine-2,4-diamine]
Cc1cccc(-c2cc(NCCc3c[nH]c4c(C)cccc34)nc(N)n2)c1C [Example 521, 6-(2,3-dimethylphenyl)-4-N-[2-(7-methyl-1H-indol-3-yl)ethyl]pyrimidine-2,4-diamine]
Cc1cccc(-c2cc(NCCc3c[nH]c4c(OCc5ccccc5)cccc34)nc(N)n2)c1C [Example 522, 4-N-{2-[7-(benzyloxy)-1H-indol-3-yl]ethyl}-6-(2,3-dimethylphenyl)pyrimidine-2,4-diamine]
COc1ccc2c(CCNc3cc(-c4cccc(C)c4C)nc(N)n3)c[nH]c2c1 [Example 523, 6-(2,3-dimethylphenyl)-4-N-[2-(6-methoxy-1H-indol-3-yl)ethyl]pyrimidine-2,4-diamine]
CC1CC1Nc1cc(-c2cccc(Cl)c2Cl)nc(N)n1 (centres unmarked) [Example 524, 6-(2,3-dichlorophenyl)-4-N-(2-methylcyclopropyl)pyrimidine-2,4-diamine]
Cc1cccc(-c2cc(NCCNc3ccc(-c4nnn[nH]4)cc3)nc(N)n2)c1C [Example 543, 6-(2,3-dimethylphenyl)-4-N-(2-{[4-(1H-1,2,3,4-tetrazol-5-yl)phenyl]amino}ethyl)pyrimidine-2,4-diamine]
COc1ccc(NCCNc2cc(-c3cccc(C)c3C)nc(N)n2)cc1S(=O)(=O)O [Example 545, 5-[(2-{[2-amino-6-(2,3-dimethylphenyl)pyrimidin-4-yl]amino}ethyl)amino]-2-methoxybenzene-1-sulfonic Acid]
Nc1nc(NCCc2ccc(S(N)(=O)=O)cc2)cc(C2=CCN(S(=O)(=O)C3CC3)CC2)n1 [Example 555, 4-[2-({2-amino-6-[1-(cyclopropanesulfonyl)-1,2,3,6-tetrahydropyridin-4-yl]pyrimidin-4-yl}amino)ethyl]benzene-1-sulfonamide]
